According to US20130040998A1, “FLUORINATED HDAC INHIBITORS AND USES THEREOF” (Dana-Farber Cancer Institute, Inc., priority 2010, published 2013):

How the values were obtained:
[1] = tested on: class IIa HDACs (HDAC4, HDAC5, HDAC7, HDAC9); test: HDAC inhibition assay, class IIa HDAC enzymes; format: biochemical, human
Experimental: (§1) The inventive compounds may be tested in any assay for HDAC inhibitor activity. In certain embodiments, the assay for determining the inhibitory effect of an inventive compound on an HDAC protein comprising: incubating the HDAC protein with a substrate of formula: […]
(§2) in the presence of an inventive compound; and determining the activity of the HDAC protein by monitoring the release of 7-amino-4-methylcoumarin after cleavage by trypsin.
(§3) In certain embodiments, the assay is performed in water. In other embodiments, the assay is performed in an organic solvent. In still other embodiments, the assay in performed in a buffer. In certain embodiments, the buffer is an assay buffer. In other embodiments, the assay buffer comprises HEPES, KCl, Tween-20, BSA, and TCEP. In further embodiments, the assay buffer is […] HEPES, 100 mM KCl, 0.001% Tween-20, 0.05% BSA, 200 µM TCEP, pH 7.4. In certain embodiments, the assay is performed at approximately pH 5.0-6.0. In certain embodiments, the assay is performed at approximately pH 5.0-9.0. In certain embodiments, the assay is performed at a pH optimum for an HDAC enzyme to function.

HDAC1-3 = test: HDAC inhibition assay, HDAC1-3; format: biochemical, human; details: fluorinated MAZ1702 versus MAZ1704
Experimental: as §1, §2, §3

[2] = difference versus unsubstituted cinnamic hydroxamic acid; Dessolin et al. 1970; cited from earlier work

affinity for class IIa HDAC enzymes compared to MAZ1704 ([1]; FIG. 2 legend, in words)	binds fold better to class IIa enzymes ([1]; fluorinated MAZ1702 versus MAZ1704 (FIG. 2))	fold increase in activity for class IIa enzymes ([1]; direct comparison with cinnamic hydroxamic acid)	SMILES	fold increase in activity for HDAC1-3 (HDAC1-3)	pKa, units lower than unsubstituted cinammic hydroxamic acid [2]
significantly increased affinity	3.5-5 fold	–	O=C(NO)/C(F)=C/c1ccccc1 [MAZ1702]	1-1.4 fold	–
–	–	5-10 fold	O=C(NO)C(F)=Cc1ccccc1 [α-fluoro cinnamic hydroxamic acid]	–	approximately 0.9 units
